Tested on: human neutrophils
Test: Neutrophil phagocytosis and killing of S. epidermidis in fibrin gels
Type: cell-based
Conditions: bacteria 10^5 to 2×10^8 CFU/ml, neutrophils 10^6 to 4×10^8/ml (data not shown)
Protocol: To facilitate processing for microscopy we used 50% autologous plasma to form gels (40 μl in volume). To increase the frequency of neutrophils and S. epidermidis interactions the gels contained 4μ 10^8 neutrophils/ml (pre-incubated in medium with or without 20 μM cytochalasin D for 15 min at room temperature), 2μ 10^8 CFU/ml S. epidermidis, and 20 μM cytochalasin D, where indicated. The gels were incubated for 60 min at 37° C., fixed with 2.5% glutaraldehyde at 4° C., and then with 1% OsO4, stained en block with 1% uranyl acetate, dehydrated, and embedded in Epon. Sections ˜[…] thick were cut, stained sequentially with lead citrate and uranyl acetate, and examined in a Phillips 1200 transmission electron microscope. […]
In stirred suspensions, neutrophils must phagocytose bacteria to kill them. […] Second, cytochalasin D, which facilitates neutrophil secretions, blocked both phagocytosis (as measured by electron microscopy), and killing of S. epidermidis in fibrin gels at all bacterial (10^5 to 2×10^8 CFU/ml) and neutrophil concentrations (10^6 to 4×10^8/ml) tested (data not shown). […]

C=C1[C@@H](C)[C@H]2[C@H](Cc3ccccc3)NC(=O)[C@]23[C@H](OC(C)=O)/C=C/[C@@](C)(O)C(=O)[C@@H](C)C/C=C/[C@H]3[C@@H]1O [cytochalasin D]
killing of S. epidermidis in fibrin gels: blocked
phagocytosis (as measured by electron microscopy): blocked
